Experiments:
β1AR = β1AR (Homo sapiens, UniProt P08588); experiment: β1AR-mediated cAMP production; assay type: cell-based; conditions: FIG. 21B
β2AR [1] = target: T1, β2AR (Homo sapiens, UniProt P07550); experiment: ISO-induced G protein-mediated cAMP production, endogenously expressed β2AR; assay type: cell-based; conditions: FIGS. 15A and 15B
β2AR [2] = target: T1, β2AR; experiment: 3H-FEN agonist binding to β2AR in cell membranes; design: host or cells: cell membranes
Method: Accordingly, these 50 potential hits from the selection were tested for their ability to increase binding of a radiolabeled agonist, ^3H-fenoterol (^3H-FEN) to the β2AR in membrane preparations, both in the absence and presence of transducers (FIGS. 14E and 14F).
Another feature of allosteric molecules observed in both binding experiments is the “ceiling” effect.

β2AR [3] = target: β2AR (Homo sapiens, UniProt P07550, N187E); experiment: ISO competition binding against 125I-CYP in presence of PAM, β2AR reconstituted in HDL particles; conditions: ISO vs 125I-CYP
MORpp [4] = target: T2, MORpp (Homo sapiens, UniProt P35372); experiment: In vitro G protein GTPase assay, MORpp HDLs (Gi); conditions: FIG. 11
T2 sequence (P35372 with tags, fused parts or gaps): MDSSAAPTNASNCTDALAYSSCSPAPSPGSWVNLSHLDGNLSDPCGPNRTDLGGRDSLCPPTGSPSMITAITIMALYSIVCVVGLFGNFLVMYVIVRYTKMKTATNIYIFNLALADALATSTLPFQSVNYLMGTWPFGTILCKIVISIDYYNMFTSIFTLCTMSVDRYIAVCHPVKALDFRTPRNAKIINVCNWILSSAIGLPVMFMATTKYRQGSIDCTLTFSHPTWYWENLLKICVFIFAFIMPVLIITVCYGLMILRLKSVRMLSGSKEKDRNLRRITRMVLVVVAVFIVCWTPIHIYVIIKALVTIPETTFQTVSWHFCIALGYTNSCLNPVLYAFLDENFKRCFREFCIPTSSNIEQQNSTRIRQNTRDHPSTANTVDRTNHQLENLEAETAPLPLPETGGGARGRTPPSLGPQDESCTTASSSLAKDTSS
Method: (§1) G protein GTPase Assay: The GTPase activity of Gαs or Gαi was measured in vitro using the GTPase Glo Assay (Promega) with the following modifications. Final reaction buffer consisted of 20 mM HEPES, pH 7.4, 100 mM NaCl, 10 mM MgCl2, and 1 mg/mL BSA. HDL-β2AR (4 nM), −M2R (100 nM), or MOR (100 nM) was incubated in the absence or presence of the indicated agonist (5 μM) and βarr1 (1 μM) for 15 min at room temperature.
(§2) To test this, an in vitro GTPase activity assay was performed that can quantitatively measure agonist-induced receptor activation of G protein.

MORpp [5] = target: T2, MORpp; experiment: [3H]-Naloxone competition binding, sortase-ligated MORpp HDLs
Method: (§3) Radioligand Binding: All equilibrium competition radioligand binding studies were conducted in a final volume of 200 μL containing HDL-receptor, radioligand, a titration of unlabeled competitor, and the presence or absence of the indicated transducer protein. All components were diluted in assay buffer containing 20 mM HEPES, pH 7.4, 100 mM NaCl, and 1 mg/mL bovine serum albumin (BSA). […] G protein or βarr1 were used at a final concentration of 100 nM or 1 μM, respectively, unless specified otherwise. Binding reactions proceeded at room temperature and were harvested onto glass-fiber filters (GFB) with 0.3% polyethyleneimine (PEI) using a 96-well Brandel harvester. Binding data were analyzed in GraphPad Prism using a sigmoidal dose-response curve fit, and differences in log IC50 values were analyzed by one-way ANOVA.

M2Rpp [6] = target: T3, M2Rpp (Homo sapiens, UniProt P08172); experiment: [3H]-NMS competition binding, sortase-ligated M2Rpp HDLs
T3 sequence (P08172 1-466): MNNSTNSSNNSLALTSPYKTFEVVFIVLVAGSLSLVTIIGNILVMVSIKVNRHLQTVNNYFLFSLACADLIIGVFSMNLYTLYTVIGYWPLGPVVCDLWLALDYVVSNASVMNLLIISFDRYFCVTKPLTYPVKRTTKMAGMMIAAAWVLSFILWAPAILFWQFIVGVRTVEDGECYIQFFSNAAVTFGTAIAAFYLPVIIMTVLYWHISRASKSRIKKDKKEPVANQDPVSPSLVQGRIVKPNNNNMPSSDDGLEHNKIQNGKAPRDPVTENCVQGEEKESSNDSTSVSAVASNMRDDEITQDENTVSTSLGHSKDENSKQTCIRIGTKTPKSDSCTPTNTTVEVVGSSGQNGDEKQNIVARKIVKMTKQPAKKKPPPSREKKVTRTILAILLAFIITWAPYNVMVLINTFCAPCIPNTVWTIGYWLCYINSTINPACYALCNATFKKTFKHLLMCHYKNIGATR
Method: as §3

M2Rpp [7] = target: T3, M2Rpp; experiment: In vitro G protein GTPase assay, M2Rpp HDLs (Gi); conditions: FIG. 11
Method: as §1, §2

β1AR, sequence (P08588 whole entry): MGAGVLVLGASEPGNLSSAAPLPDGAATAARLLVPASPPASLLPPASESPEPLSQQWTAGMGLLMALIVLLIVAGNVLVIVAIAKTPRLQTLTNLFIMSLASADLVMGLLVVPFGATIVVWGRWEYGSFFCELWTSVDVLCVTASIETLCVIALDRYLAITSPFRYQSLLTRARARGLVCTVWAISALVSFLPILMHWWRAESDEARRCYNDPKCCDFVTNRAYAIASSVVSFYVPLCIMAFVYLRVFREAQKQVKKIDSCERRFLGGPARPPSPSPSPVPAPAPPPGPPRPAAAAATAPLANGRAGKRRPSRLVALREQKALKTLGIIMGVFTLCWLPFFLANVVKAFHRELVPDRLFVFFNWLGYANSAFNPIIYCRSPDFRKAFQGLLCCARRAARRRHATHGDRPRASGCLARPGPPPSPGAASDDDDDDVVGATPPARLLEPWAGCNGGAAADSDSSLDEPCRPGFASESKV

Structure (SMILES): COc1ccc(Sc2ccc(S(=O)(=O)N(C)C(C)C)cc2C(=O)N[C@@H](CC(N)=O)Cc2ccc(C(C)(C)C)cc2)cc1 [Cmpd-6, (R)—N-(4-Amino-1-(4-(tert-butyl)phenyl)-4-oxobutan-2-yl)-5-(N-isopropyl-N-methylsulfamoyl)-2-((4-methoxyphenyl)thio)benzamide]
- changes in ISO dose response pattern of cAMP production (β1AR): Marginal changes

Structure (SMILES): COc1ccc(Sc2ccc(S(=O)(=O)Nc3cccc(F)c3)cc2C(=O)N[C@@H](CC(N)=O)Cc2ccc(C(C)(C)C)cc2)cc1 [Cmpd-43, (R)—N-(4-Amino-1-(4-(tert-butyl)phenyl)-4-oxobutan-2-yl)-5-(N-(3-fluorophenyl)sulfamoyl)-2-((4-methoxyphenyl)thio)benzamide]
- effect on ISO-induced cAMP production (β2AR [1]): increased the maximal response induced by ISO as well as potentiated the EC50 value
- increase in 3H-FEN binding to the β2AR (β2AR [2]): dose-dependently increase the binding
- potentiation of the IC50 value of ISO (β2AR [3]): ~30 fold

Structure (SMILES): C[C@@H](NC(=O)[C@@H](N)Cc1ccc(O)cc1)C(=O)NCC(=O)N(C)[C@@H](Cc1ccccc1)C(=O)NCCO [DAMGO]
- G protein activation (GTP hydrolysis) (MORpp [4]): increases G protein activation
- increase in agonist affinity by βarr1 (MORpp [5]): 2 fold
- increase in agonist affinity induced by G protein (MORpp [5]; Gi heterotrimer): > 100 fold

Structure (SMILES): C[N+](C)(C)CCOC(N)=O [carbachol]
- increase in agonist affinity by βarr1 (M2Rpp [6]): 57 fold
- increase in agonist affinity induced by G protein (M2Rpp [6]; Gi heterotrimer): > 100 fold

Structure (SMILES): C[N+](C)(C)CC#CCOC1=NOCC1 [iperoxo]
- G protein activation (GTP hydrolysis) (M2Rpp [7]): increases G protein activation
- effects of G protein and βarr on agonist affinity (M2Rpp [6]; FIGS. 9E and 9F): comparable effects of G protein and βarr

Source: US11866482B2, “System and method for homogenous GPCR phosphorylation and identification of beta-2 adrenergic receptor positive allosteric modulators” (Duke University, priority 2018, dated 2024)
